Patent US20260048046A1, “METHOD FOR IMPROVING GROWTH PERFORMANCE IN FEEDLOT CATTLE” (Elanco US Inc., priority 2022, published 2026)

Test system: beef feedlot cattle
Test: 56-d study: animal mobility (NAMI mobility score)
Format: in vivo
Conditions: for Percentage of steers, mobility score 1, Lairage / Percentage of steers, mobility score 2, Lairage / Percentage of steers, mobility score >2, Lairage / Percentage of steers, mobility score 1, Pen / Percentage of steers, mobility score 2, Pen / Percentage of steers, mobility score >2, Pen / Percentage of steers, mobility score 1, Loadout / Percentage of steers, mobility score 2, Loadout / Percentage of steers, mobility score >2, Loadout: final 56 d; for Percentage of steers, mobility score 1, Lairage / Percentage of steers, mobility score 2, Lairage / Percentage of steers, mobility score >2, Lairage: antemortem inspection at the packing plant; for Percentage of steers, mobility score 1, Pen / Percentage of steers, mobility score 2, Pen / Percentage of steers, mobility score >2, Pen: approx. 1 wk prior to harvest in home pens; for Percentage of steers, mobility score 1, Loadout / Percentage of steers, mobility score 2, Loadout / Percentage of steers, mobility score >2, Loadout: immediately prior to loading into trucks
Protocol: Animal mobility assessments were conducted three times prior to harvest at: 1) approximately 1 week prior to harvest while cattle were in their home pens; 2) after collection of final pen weights and immediately prior to loading into trucks for slaughter; and 3) at antemortem inspection during lairage at the packing plant. The mobility scorer used the North American Meat Institute's (NAMI) mobility scoring system (Edwards-Callaway et al., 2017) to evaluate cattle mobility.
The label claim variable of cumulative NH3 gas emissions over the treatment period normalized by final BW (with d −59 BW as a covariate) for the period and HCW (g of gas kg^−1 of BW or g of gas kg^−1 HCW) was determined by utilizing NH3 gas emissions equations developed from the LUB clinical effectiveness study (FDA-FOI, 2018) and validated using animals of similar BW as described by Brown et al. (2019). The pen was the experimental unit for each outcome. Differences were deemed significant using a two-sided test at Ptrt≤0.05, however, a less stringent significance threshold of Ptrt≤0.10 was used for abnormal health observations. Fixed effect of treatment and random effects of time replicate and block within time replicate were included in the model. Discrete variables were analyzed using a generalized linear mixed model, Proc GLIMMIX SAS version 9.4 unless there were convergence problems due to sparseness of data. A binomial distribution was assumed and a logit link used in the analysis. Contrasts were constructed between the CON group and each non-CON dosage group, and differences were deemed significant at Pdose≤0.05. If convergence problems arose due to sparseness of data, Fisher's exact test (binomial data; Proc FREQ in SAS) or Wilcoxon's rank-sum test (categorical data; Proc NARIWAY in SAS) was used to evaluate differences between the CON group and the non-CON dosage groups. In all cases except for health observations, differences were deemed significant at Ptrt≤0.05 for these primary discrete variables. Additionally, non-CON dosage groups were compared to one another using a significance level of Pdose≤0.05. A less stringent Ptrt≤0.10 level of significance was used for health observations.

## CC(C)(Cc1ccc(Oc2ncccc2C#N)cc1)NC[C@H](O)COc1ccccc1-c1cccs1 [LUB, 2-{4-[2-({(2S)-2-Hydroxy-3-[2-(2-thienyl)phenoxy]propyl}amino)-2-methylpropyl]phenoxy}nicotinonitrile]
1.5 mg·kg^−1 DM
  Percentage of steers, mobility score 1, Lairage: 80.2%
  Percentage of steers, mobility score 2, Lairage: 11.8%
  Percentage of steers, mobility score >2, Lairage: 8.0%
  Percentage of steers, mobility score 1, Pen: 85.0%
  Percentage of steers, mobility score 2, Pen: 11.4%
  Percentage of steers, mobility score >2, Pen: 3.6%
  Percentage of steers, mobility score 1, Loadout: 76.6%
  Percentage of steers, mobility score 2, Loadout: 21.4%
  Percentage of steers, mobility score >2, Loadout: 2.0%
3.5 mg·kg^−1 DM
  Percentage of steers, mobility score 1, Lairage: 81.7%
  Percentage of steers, mobility score 2, Lairage: 12.1%
  Percentage of steers, mobility score >2, Lairage: 6.2%
  Percentage of steers, mobility score 1, Pen: 85.9%
  Percentage of steers, mobility score 2, Pen: 10.4%
  Percentage of steers, mobility score >2, Pen: 3.7%
  Percentage of steers, mobility score 1, Loadout: 73.7%
  Percentage of steers, mobility score 2, Loadout: 23.1%
  Percentage of steers, mobility score >2, Loadout: 3.2%
5.5 mg·kg^−1 DM
  Percentage of steers, mobility score 1, Lairage: 80.9%
  Percentage of steers, mobility score 2, Lairage: 12.6%
  Percentage of steers, mobility score >2, Lairage: 6.5%
  Percentage of steers, mobility score 1, Pen: 86.9%
  Percentage of steers, mobility score 2, Pen: 8.3%
  Percentage of steers, mobility score >2, Pen: 4.8%
  Percentage of steers, mobility score 1, Loadout: 71.3%
  Percentage of steers, mobility score 2, Loadout: 25.0%
  Percentage of steers, mobility score >2, Loadout: 3.7%
56 d, all treatments, at all assessment times
  Cattle scoring a mobility score of 1 or 2: ≥ 92%
56 d, any assessment time point prior to harvest
  Animals receiving abnormal mobility scores of >2, across treatments: not different across treatments
56 d, any assessment time, Ptrt≥0.17
  Percent of cattle scored 1 (mobility), differences among treatments: No differences
56 d, at any time, Ptrt≥0.170
  Percent of cattle receiving mobility scores of 1 or 2, treatment differences: No treatment differences
